In patent publication US5641804A, “Fungicidal compound comprising a cyclic polylactone” (Novo Nordisk A/S, priority 1992, dated 1997):
≈ marks a conversion by molar mass, not a printed value.

What was measured:
[1] = system: plant pathogenic fungi; assay: In vitro fungicidal activity spectrum over the pathogens tested; format: cell-based
Description: The following pathogens were used:
(§1) Each of the above mentioned 9 pathogens were separately innoculated into 100 ml of potato dextrose (PD) bouillon and shaken at 200 rpm at 25° C. for 7 days. The mycelium was harvested and homogenized for about 10 seconds in a Warring blender and 1-5 ml of the blended mycelium was transferred to petri dishes with a diameter of 14 cm. […] 20 ml of potato dextrose agar (PDA) having a temperature of 45° C. were poured into each of the petri dishes and thorougly mixed with the blended mycelium present therein. When the agar had solidified, wells of a diameter of 4 mm were punched in the agar, and 15 μl of test solutions containing varicus concentrations of compound Ia, Ib and IIa dissolved in ethanol was applied to each well. The plates were incubated for three days at 25° C. and the inhibition zones measured (in mm).
(§2) The experiments were repeated and in the second run, Bc plates were made from Bc spores (the plates were termed Bc2) as such plates may result in a more uniform growth.

[2] = system: Alternaria alternata; assay: Agar well inhibition zone, Alternaria alternata (Aa); format: cell-based; conditions: 15 μl per well, 3 days at 25° C.; for zone of inhibition at 500 µg/mL: 0.5 mg/ml; for zone of inhibition at 1000 µg/mL: 1.0 mg/ml
Description: Alternaria alternata (Aa) black mould coverings, leaf spot
as §1, §2

[3] = system: Botrytis cinerea; assay: Agar well inhibition zone, Botrytis cinerea, mycelium plates (Bc1); format: cell-based; design: key to inhibition zone Bc1: clear; diffuse; very diffuse; +: very weak; conditions: 15 μl per well, 3 days at 25° C.
Description: (§3) Botrytis cinerea (Bc) grey mould
as §1, with “mm). […]” for “mm).”

[4] = system: Pyrenophora teres; assay: Agar well inhibition zone, Pyrenophora teres (Pt); format: cell-based; design: key to inhibition zone Pt: clear; diffuse; very diffuse; +: very weak; conditions: 15 μl per well, 3 days at 25° C.; for zone of inhibition at 500 µg/mL / zone of inhibition at 1000 µg/mL / zone of inhibition at 100 µg/mL: Pyrenophora teres, 72 h; for zone of inhibition at 500 µg/mL: 0.5 mg/ml; for zone of inhibition at 1000 µg/mL: 1.0 mg/ml
Description: Pyrenophora teres (Pt) net blotch disease
as §1, with “mm). […]” for “mm).”

[5] = system: Phoma betae; assay: Agar well inhibition zone, Phoma betae (Pb); format: cell-based; conditions: 15 μl per well, 3 days at 25° C.; for zone of inhibition at 500 µg/mL: 0.5 mg/ml
Description: Phoma betae (Pb) seedling black rot, black leg
as §1, with “mm). […]” for “mm).”

[6] = system: Ascochyta pisi; assay: Agar well inhibition zone, Ascochyta pisi (Ap); format: cell-based; design: key to inhibition zone Ap: clear; diffuse; very diffuse; +: very weak; conditions: 15 μl per well, 3 days at 25° C.; for zone of inhibition at 1000 µg/mL: 1.0 mg/ml
Description: Ascochyta pisi (Ap) leaf, stem and pod rot
as §1, with “mm). […]” for “mm).”

[7] = system: Sclerotinia sclerotiorum; assay: Agar well inhibition zone, Sclerotinia sclerotiorum (Ss); format: cell-based; design: key to inhibition zone Ss: clear; diffuse; very diffuse; +: very weak; conditions: 15 μl per well, 3 days at 25° C.
Description: Sclerotinia sclerotiorum (Ss) white mould disease, stem rot
as §1, with “mm). […]” for “mm).”

[8] = system: Monilinia fructigena; assay: Agar well inhibition zone, Monilinia fructigena (Mf); format: cell-based; conditions: 15 μl per well, 3 days at 25° C.; for zone of inhibition at 500 µg/mL: 0.5 mg/ml; for zone of inhibition at 1000 µg/mL: 1.0 mg/ml
Description: Monilinia fructigena (Mf) brown rot, fruit rot
as §1, with “mm). […]” for “mm).”

[9] = system: Botrytis cinerea; assay: Agar well inhibition zone, Botrytis cinerea, plates made from spores (Bc2); format: cell-based; conditions: for appearance of Bc zones / time of incubation after which Bc zones could be seen: Bc plates; for zone of inhibition at 500 µg/mL: 0.5 mg/ml; for zone of inhibition at 1000 µg/mL: 1.0 mg/ml
Description: as §3, §1, §2

[10] = system: mouse peritoneal macrophage; assay: Mouse peritoneal macrophage assay, cellular ATP (viability); format: cell-based
[11] = system: Phoma lingam; assay: Agar well inhibition zone, Phoma lingam (Pl); format: cell-based; design: key to inhibition zone P1: clear; diffuse; very diffuse; +: very weak; conditions: 15 μl per well, 3 days at 25° C.; for zone of inhibition at 1000 µg/mL: 1.0 mg/ml
Description: Phoma lingam (Pl) canker and dry rot
as §1, with “mm). […]” for “mm).”

[12] = system: mouse peritoneal macrophage; assay: Mouse peritoneal macrophage assay, chemiluminescence (phagocytosis); format: cell-based
[13] = system: Botrytis cinerea; assay: Fungicidal activity in vivo against Botrytis cinerea on sprayed plants; conditions: spray to run off, assessed after 6 days
Description: Activity of the compounds Ia and Ib against Botrytis cinerea Host: Lycopersicon esculentum (tomato, var. First in Field) […] plants (5 weeks old) were sprayed to run off with liquid solutions using a handhold sprayer (Bink Bullows 900). The solution (70% EtOH) had different concentrations of the compounds Ia and Ib. The plants were kept 24 hours in a green house to dry before they were inoculated with a spore suspension containing 1×10^5 spores/ml in 25% grape juice. The inoculation was carried out with a handhold atomizer (Wagner, Pico Bel). The plants were then incubated (16 hours light (1000 lux) and 8 hours dark) at 15°-20° C. in clear polyethylene bags to raise the relative humidity to 95-100%. After 6 days the assessment was done.

[14] = system: nerve growth factor; conditions: cited from earlier work
[15] = Neocamarosporium betae, 72 h, 0.1 mg/ml
[16] = Ascochyta pisi, 72 h, 0.1 mg/ml
[17] = 0.1 mg/ml, 15 μl per well, 3 days at 25° C., plates from spores
[18] = Botrytis cinerea, 72 h, 15 μl per well, 3 days at 25° C., plates from spores
[19] = Plenodomus lingam, 72 h, read-out: inhibition zone P1
[20] = Botrytis cinerea, 72 h, 0.1 mg/ml

Structure (SMILES) | zone of inhibition at 500 µg/mL ([2]; Alternaria alternata, 72 h) | zone of inhibition at 1000 µg/mL ([2]; Alternaria alternata, 72 h) | zone of inhibition at 500 µg/mL [4] | zone of inhibition at 1000 µg/mL [4] | zone of inhibition at 100 µg/mL [5, 15] | zone of inhibition at 500 µg/mL ([5]; Neocamarosporium betae, 72 h) | zone of inhibition at 100 µg/mL [6, 16] | zone of inhibition at 1000 µg/mL ([6]; Ascochyta pisi, 72 h) | inhibition zone Ss ([7]; 0.1 mg/ml) | inhibition zone Mf ([8]; 0.1 mg/ml) | zone of inhibition at 500 µg/mL ([8]; Monilinia fructigena, 72 h) | zone of inhibition at 1000 µg/mL ([8]; Monilinia fructigena, 72 h) | inhibition zone Bc2 [9, 17] | appearance of Bc zones [9] | time of incubation after which Bc zones could be seen [9] | zone of inhibition at 500 µg/mL [9, 18] | zone of inhibition at 1000 µg/mL [9, 18] | IC50 [10] | inhibition zone P1 ([11]; 0.1 mg/ml) | zone of inhibition at 1000 µg/mL [11, 19] | also measured
C[C@@H]1Cc2cc(O)cc(O)c2C(=O)O[C@H](C)CC(=O)OC[C@@H](O)CC(=O)O[C@H](C)Cc2cc(O)cc(O)c2C(=O)O[C@H](C)CC(=O)O1 [Compound IIa] | 0 mm | 0 mm | 0 mm | 0 mm | 0 mm | 0 mm | 0 mm | 0 mm | 40d mm | 40v | 40 mm | 40 mm | 30d mm | very diffuse | ≥ 3 days | 37 mm | 45 mm | < 10 µg/mL | 31d mm | 18 mm | number of pathogens against which compound was active ([1]; with respect to Bc only for the plate containing spores): 5 pathogens; inhibition zone Bc1 ([3]; 0.1 mg/ml): +; inhibition zone Bc1 ([3]; 0.5 mg/ml): +; inhibition zone Bc1 ([3]; 1.0 mg/ml): +; inhibition zone Pt ([4]; 0.1 mg/ml): +; zone of inhibition at 500 µg/mL ([6]; Ascochyta pisi, 72 h, 0.5 mg/ml): 0 mm; inhibition zone Ss ([7]; 0.5 mg/ml): +; inhibition zone Ss ([7]; 1.0 mg/ml): +; zone of inhibition at 500 µg/mL ([11]; Plenodomus lingam, 72 h, 0.5 mg/ml, read-out: inhibition zone P1): 14 mm; IC50 [12]: < 10 µg/mL
C[C@@H]1CC(=O)O[C@H](C)Cc2cc(O)cc(O)c2C(=O)O[C@H](C)CC(=O)O[C@H](C)Cc2cc(O)cc(O)c2C(=O)O[C@H](C)CC(=O)O1 [Compound Ib] | 15 mm | 17 mm | 17 mm | 33 mm | 0 mm | 17 mm | 0 mm | 15 mm |  |  | 0 mm | 25 mm |  | very clear | ≤ 2 days | 26 mm | 30 mm | 6 µg/mL (≈ 9.28 µM) |  | 12 mm | activity spectrum ([1]; all pathogens tested, Table 2): active, to a higher or lower degree, towards all of the pathogens tested; zone of inhibition at 100 µg/mL ([2]; Alternaria alternata, 72 h, 0.1 mg/ml): 0 mm; zone of inhibition at 100 µg/mL [3, 20]: 0 mm; zone of inhibition at 500 µg/mL ([3]; Botrytis cinerea, 72 h, 0.5 mg/ml): 0 mm; zone of inhibition at 1000 µg/mL ([3]; Botrytis cinerea, 72 h, 1.0 mg/ml): 0 mm; zone of inhibition at 100 µg/mL ([4]; 0.1 mg/ml): 0 mm; zone of inhibition at 1000 µg/mL ([5]; Neocamarosporium betae, 72 h, 1.0 mg/ml): 20 mm; inhibition zone Ap ([6]; 0.5 mg/ml): +; zone of inhibition at 100 µg/mL ([7]; Sclerotinia sclerotiorum, 72 h, 0.1 mg/ml): 0 mm; zone of inhibition at 500 µg/mL ([7]; Sclerotinia sclerotiorum, 72 h, 0.5 mg/ml): 0 mm; zone of inhibition at 1000 µg/mL ([7]; Sclerotinia sclerotiorum, 72 h, 1.0 mg/ml): 0 mm; zone of inhibition at 100 µg/mL ([8]; Monilinia fructigena, 72 h, 0.1 mg/ml): 0 mm; zone of inhibition at 100 µg/mL ([9]; Botrytis cinerea, 72 h, 0.1 mg/ml, 15 μl per well, 3 days at 25° C., plates from spores): 0 mm; inhibition zone P1 ([11]; 0.5 mg/ml): +; zone of inhibition at 100 µg/mL ([11]; Plenodomus lingam, 72 h, 0.1 mg/ml, read-out: inhibition zone P1): 0 mm; protection ([13]; 36 ppm): approx. 50%; protection ([13]; 360 ppm): approx. 50%; IC50 [12]: 6 µg/mL (≈ 9.28 µM)
C[C@@H]1Cc2cc(O)cc(O)c2C(=O)O[C@H](C)CC(=O)OC[C@@H](O)CC(=O)O[C@H](C)Cc2cc(O)cc(O)c2C(=O)O[C@H](C)CC(=O)O1 [IIIa] |  |  |  |  |  |  |  |  | 0 mm | 0 mm |  |  | 0 mm |  |  |  |  |  | 0 mm |  | inhibition zone Aa ([2]; 0.1 mg/ml): 0 mm; zone of inhibition at 100 µg/mL [3, 20]: 0 mm; zone of inhibition at 100 µg/mL ([4]; 0.1 mg/ml): 0 mm; inhibition zone Pb ([5]; 0.1 mg/ml): 0 mm; inhibition zone Ap ([6]; 0.1 mg/ml): 0 mm
CC1Cc2cc(O)cc(O)c2C(=O)OC(C)CC(=O)OC(C)Cc2cc(O)cc(O)c2C(=O)OC(C)CC(=O)OC(CO)CC(=O)O1 (centres unmarked) [NG-012] |  |  |  |  |  |  |  |  |  |  |  |  |  |  |  |  |  |  |  |  | nerve growth factor potentiation [14]: nerve growth factor potentiator
